Experimental data taken from patent US20220308045A1, “EXPANDABLE LIVER ORGANOIDS, MEDIA COMPOSITION FOR DIFFERENTIATION THEREOF, AND METHOD FOR PRODUCING LIVER ORGANOIDS USING THE SAME” (KOREA RESEARCH INSTITUTE OF BIOSCIENCE AND BIOTECHNOLOGY, priority 2019, published 2022).

Legend:
[1] = system: organoids in the HM conditions; experiment: APAP toxic damage, regeneration and inflammatory response of liver organoids; assay type: cell-based, human
Protocol: Time-lapsed images were taken at 37° C. under 5% CO2 at 30-minute intervals with an Olympus IX83 inverted microscope. The diameter of the organoid was measured using ImageJ program at the designated time point from the time lapsed image. Fluorescence images were taken with a confocal microscope. In addition, the organoids were cultured for 30 minutes with 7.5 μM dihydroethidium (Sigma; D7008) for detecting ROS, 30 μM monochlorobimane (Sigma; 69899) for measuring GSH content, and 2.5 μM Syto11 (Thermo Fisher; S7573) for staining nuclei.
In addition, the expressions of high-mobility group protein 1 (HMGB1), which is a protein involved in the detection of ROS and the inflammatory response of cells, ki67, which is a marker indicating cell proliferation, E-cadherin, which is an epithelial marker, LC3B, which is an autophagy marker, and Tom20, a mitochondrial marker, were analyzed at protein level according to the method described in Experimental Example 1.

[2] = system: steatosis-induced liver organoids; experiment: Drug screening of autophagy library for suppressing lipid accumulation (Nile red); assay type: cell-based, human; conditions: 10 μM during steatosis induction; top four of 151 chemical substances
Protocol: For drug screening, the organoids were treated with 151 chemical substances at a concentration of 10 μM in the autophagy library (Selleckchem; At L2600) during the hepatic steatosis induction period. Then, the organoids were stained with Nile red and fluorescence images were analyzed with a confocal microscope.

[3] = system: steatosis-induced liver organoids; experiment: Hepatic steatosis model: lipid droplets by bright field microscope and Nile red staining; assay type: cell-based, human; conditions: added to FA (oleate and palmitate), compared with FA alone
Protocol: The organoids in the HM conditions were seeded on a 24-well plate in order to be induced into liver organoids with steatosis. Three days after seeding, 0.5 mM oleate (Sigma; 07501) combined with 12% fatty acid-free BSA (Sigma; A8806) and 0.25 mM palmitate (Sigma; P9767) were added for 3 days, and images of accumulated lipid droplets were observed under a microscope. For Nile red staining, the samples were washed with PBS and fixed with 4% PFA at 4° C. overnight. The organoids were washed with PBS and treated with 10 μg/ml Nile red solution (Thermo Fisher; N1142) at room temperature for 5 minutes. Fluorescence images were taken with a confocal microscope.
(§1) Meanwhile, in order to confirm the effect on the induction of hepatic steatosis, the organoids in the HM conditions were treated with BSA, FA, FA+etomoxir, FA+L-carnitine, and FA+metformin, respectively, and the results were compared.

[4] = system: steatosis-induced liver organoids; experiment: Hepatic steatosis model: mitochondrial respiration measured by OCR; assay type: cell-based, human; conditions: added to FA
Protocol: (§2) Oxygen consumption rate (OCR) was measured for real-time monitoring of mitochondrial toxicity. Two days before the measurement, the organoids were seeded on XFe 96-well plate (Agilent; 102416-100). The probe cartridge was adjusted overnight in a non-C02 incubator at 37° C. On the assay day, the culture medium was removed and washed with warm assay medium (Agilent Seahorse XF base medium (102353-100) supplemented with 1 mM glutamine, 1 mM pyruvate and 17.5 mM glucose for OCR measurement), and the assay medium was added. The culture dish was placed in a non-CO2 incubator at 37° C. for 1 hour, and OCR was measured using Seahorse XFe96 Flux Analyzer according to the manufacturer's instructions.
(§3) For OCR measurement, ATP synthesis inhibitors (1.5 μM oligomycin and ETC complex V inhibitor), uncoupler (1 μM FCCP), and complex I inhibitor (0.5 μM Rotenone) plus complex III inhibitor (0.5 μM antimycin A) were sequentially added at designated time points. The measured value was normalized to the number of surviving cells measured by Cell Counting Kit-8 (Dogindo; CK04-01).
as §1

[5] = system: steatosis-induced liver organoids; experiment: Hepatic steatosis model: triglyceride concentration; assay type: cell-based, human; conditions: added to FA, compared with BSA control or FA alone
Protocol: For the analysis of triglyceride concentration, the steatosis-induced organoids were analyzed by using triglyceride assay kit (Abcam; ab65336) according to the manufacturer's instructions. The organoids were homogenized for 5 minutes using 1 mL of a 5% NP-40 solution under the condition of heated to 80 to 100° C. The pellets were diluted 10-fold with dilution water before starting the analysis. Absorbance was measured at 570 nm by using SpectraMax microplate reader.
as §1

[6] = in vitro; conditions: human
Protocol: (§4) The 2D differentiated mature hepatocytes (2D MH) and organoids (HM) in the HM conditions were seeded in a 24-well plate. […] Three days after seeding, the drug was added daily for 6 days, and toxicity was evaluated by calculating the number of cells using Countess II FL (Life Technology). Then, the organoids were washed with PBS, and fluorescence images were taken with a confocal microscope. Relative intensity was measured using ZEN program (Zeiss) in the same region.
(§5) Next, the effects of trovafloxacin (Sigma; PZ0015) and levofloxacin (Sigma; 28,266), which are structurally related antibiotics, on the 2D MH and the organoids in the HM conditions were compared.

[7] = read-out: Cmax concentration; cited from earlier work
[8] = molecular target: CYP3A4 (Homo sapiens, UniProt P08684)
Protocol: Aliquots (100 μL) were diluted with 2-fold volume of acetonitrile containing carbamazepine as an internal standard for sample analysis and transferred to a 96-well plate.

[9] = system: organoids in the HM conditions; experiment: in vitro; conditions: human, 6 days
Protocol: as §4, §5

[10] = system: organoids in the HM conditions; experiment: Oxygen consumption rate (OCR) for mitochondrial toxicity in liver organoids; assay type: cell-based, human; conditions: 0.8 μM and 4 μM, 6 days
Protocol: as §2, §3

[11] = system: 2D MH; experiment: Drug toxicity by number of cells after 6 days of treatment, 2D differentiated mature hepatocytes; assay type: cell-based, human; conditions: 0.8 μM and 4 μM
Protocol: as §4, §5

[12] = patients; cited from earlier work

Sequence of CYP3A4 (P08684 whole entry): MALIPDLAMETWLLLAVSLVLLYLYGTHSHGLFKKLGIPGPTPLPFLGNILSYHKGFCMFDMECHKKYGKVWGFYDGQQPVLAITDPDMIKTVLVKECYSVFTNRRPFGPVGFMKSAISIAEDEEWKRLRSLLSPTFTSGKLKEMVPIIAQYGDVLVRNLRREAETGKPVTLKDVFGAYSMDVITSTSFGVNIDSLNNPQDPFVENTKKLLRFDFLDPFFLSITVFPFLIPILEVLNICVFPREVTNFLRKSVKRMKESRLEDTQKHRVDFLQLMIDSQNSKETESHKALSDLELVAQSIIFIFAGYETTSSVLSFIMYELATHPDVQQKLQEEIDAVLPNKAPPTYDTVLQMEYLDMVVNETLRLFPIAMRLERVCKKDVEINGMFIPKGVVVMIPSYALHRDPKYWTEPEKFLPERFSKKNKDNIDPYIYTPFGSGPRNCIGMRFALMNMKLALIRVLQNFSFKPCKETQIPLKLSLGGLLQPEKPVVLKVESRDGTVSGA

Structure (SMILES): CC(=O)Nc1ccc(O)cc1 [APAP, acetaminophen]
- reactive oxygen species (ROS) ([1]; 20 mM APAP, dihydroethidium staining): increased
- expression amounts of Ki67, E-cadherin, and Tom20 ([1]; 20 mM APAP, immunofluorescence): reduced
- expression of HMGB1 ([1]; 20 mM APAP, immunofluorescence, migration to the cytoplasm): reduced
- organoid morphology ([1]; 20 mM daily for 7 days): severe morphological damage
- organoid morphology and size after recovery ([1]; 20 mM for 60 hours from day 2, new HM medium on day 4.5): recovered on day 7
- expression of LC3B ([1]; APAP for 60 hours versus APAP for 5 days): more strongly induced
- expression of IL-10 ([1]; APAP for 60 hours, then new HM medium on day 4.5, qRT-PCR): significantly increased
- expressions of proinflammatory mediators (IL-1β, IL-6, IL-8) and pathological mediators (TNF-α and FasL) ([1]; APAP for 7 days, qRT-PCR): strongly induced

Structure (SMILES): CO[C@H]1C[C@@H]2CC[C@@H](C)[C@@](O)(O2)C(=O)C(=O)N2CCCC[C@H]2C(=O)O[C@H]([C@H](C)C[C@@H]2CC[C@@H](OCCO)[C@H](OC)C2)CC(=O)[C@H](C)/C=C(\C)[C@@H](O)[C@@H](OC)C(=O)[C@H](C)C[C@H](C)/C=C/C=C/C=C/1C [Everolimus]
- phenotype of hepatic steatosis and lipid accumulation in drug screening [2]: capable of restoring lipid accumulation

Structure (SMILES): COc1ccc(-c2ccc3c(N4CCOCC4)nc(N4C[C@@H](C)O[C@@H](C)C4)nc3n2)cc1CO [KU-0063794]
- phenotype of hepatic steatosis and lipid accumulation in drug screening [2]: capable of restoring lipid accumulation

Structure (SMILES): C[N+](C)(C)C[C@H](O)CC(=O)[O-] [L-carnitine]
- accumulation of intracellular lipid droplets / lipid accumulation [3]: significantly reduced
- mitochondrial respiration measured by OCR [4]: recovered

Structure (SMILES): O=C(CCCCCN1C(=O)c2cccc3cccc(c23)C1=O)NO [Scriptaid]
- phenotype of hepatic steatosis and lipid accumulation in drug screening [2]: capable of restoring lipid accumulation

Structure (SMILES): CC(=O)Nc1ccc(C(=O)Nc2ccccc2N)cc1 [Tacedinalin, Tacedinaline]
- phenotype of hepatic steatosis and lipid accumulation in drug screening [2]: capable of restoring lipid accumulation

Structure (SMILES): CCOC(=O)[C@@]1(CCCCCCOc2ccc(Cl)cc2)CO1 [etomoxir]
- intracellular triglyceride concentration [5]: significantly increased
- accumulation of intracellular lipid droplets / lipid accumulation [3]: significant accumulation
- mitochondrial respiration measured by OCR [4]: significantly reduced

Structure (SMILES): C[C@H]1COc2c(N3CCN(C)CC3)c(F)cc3c(=O)c(C(=O)O)cn1c23 [levofloxacin]
- cytotoxicity at 6 days, 100 μM [6]: 36%
- Cmax [7]: 23.8 µM

Structure (SMILES): CN(C)C(=N)N=C(N)N [metformin]
- intracellular triglyceride concentration [5]: not reduced
- accumulation of intracellular lipid droplets / lipid accumulation [3]: slightly reduced

Structure (SMILES): C[C@]12CC[C@H]3[C@@H](CCC4=CC(=O)CC[C@@]43C)[C@@H]1CC[C@@H]2O [testosterone]
- metabolism to 6β-hydroxytestosterone [8]: directly hydroxylated

Structure (SMILES): Cc1c(C)c2c(c(C)c1O)CCC(C)(COc1ccc(CC3SC(=O)NC3=O)cc1)O2 (stereo not drawn) [troglitazone, Troglitazone]
- toxic response, 2D MH versus organoids [9]: different in 2D and 3D models

Structure (SMILES): N[C@@H]1[C@H]2CN(c3nc4c(cc3F)c(=O)c(C(=O)O)cn4-c3ccc(F)cc3F)C[C@@H]12 [trovafloxacin]
- Cmax [7]: 4.1 µM
- OCR (mitochondrial respiration) [10]: reduction of OCR
- number of cells [11]: little change
- reported side effect [12]: patient death due to liver failure
